From patent US20020031816A1, “METHOD OF INHIBITION OF HUMAN GLYCOGEN PHOSPHORYLASE” (priority 1998, published 2002)

melting point	Structure (SMILES)
119 to 121 °C	CCN1C(=O)C(C(=O)Nc2cccc(C(=O)Nc3ccc(Cl)cc3)c2)c2cc(C(C)=O)ccc21 (stereo not drawn) [Preparation 3, 5-Acetyl-1-ethyl-2-oxo-2,3-dihydro-1H-indole-3-carboxylic acid [3-(4-chloro-phenylcarbamoyl)-phenyl]-amide]
205 to 210 °C	CCN1C(=O)C(C(=O)Nc2cccc(C(=O)Nc3ccc(I)cc3)c2)c2cc(C(C)=O)ccc21 (stereo not drawn) [Preparation 9, 5-Acetyl-1-ethyl-2-oxo-2,3-dihydro-1H-indole-3-carboxylic acid [3-(4-iodo-phenylcarbamoyl)-phenyl]-amide]
178 to 179 °C	CC(=O)c1ccc2c(c1)C(C(=O)Nc1cccc(C(=O)Nc3ccccc3)c1)C(=O)N2C (stereo not drawn) [Preparation 12, 5-Acetyl-1-methyl-2-oxo-2,3-dihydro-1H-indole-3-carboxylic acid (3-phenylcarbamoyl-phenyl)-amide]

More lines, now with the values behind:

Structure (SMILES)	melting point
CCN1C(=O)C(C(=O)Nc2cccc(C(=O)NC3CCCCC3)c2)c2cc(C(C)=O)ccc21 (stereo not drawn) [Preparation 2, 5-Acetyl-1-ethyl-2-oxo-2,3-dihydro-1H-indole-3-carboxylic acid (3-cyclohexylcarbamoyl-phenyl)-amide]	180 °C (dec.)
CCN1C(=O)C(C(=O)Nc2cccc(C(=O)Nc3ccc(Br)cc3)c2)c2cc(C(C)=O)ccc21 (stereo not drawn) [Preparation 8, 5-Acetyl-1-ethyl-2-oxo-2,3-dihydro-1H-indole-3-carboxylic acid [3-(4-bromo-phenylcarbamoyl)-phenyl]-amide]	117 to 120 °C
CCN1C(=O)C(C(=O)Nc2cccc(C(=O)Nc3ccccc3)c2)c2cc(C(=O)c3ccccc3)ccc21 (stereo not drawn) [Preparation 10, 5-Benzoyl-1-ethyl-2-oxo-2,3-dihydro-1H-indole-3-carboxylic acid (3-phenylcarbamoyl-phenyl)-amide]	129 to 135 °C
